Reference: patent US20210290597A1, “METHOD OF TREATING A CONDITION ASSOCIATED WITH NEURODEGENERATION USING INHIBITORS OF OAT3” (Neuropore Therapies, Inc., priority 2018, published 2021)
Where two headings read alike, the source gives them in different places.

Key:
human transporter MATE1 = biological target: T1, human transporter MATE1 (Homo sapiens, UniProt Q96FL8); experiment: In vitro ion transport assay 1, MATE1; type: cell-based; settings: probe substrate 10 μM [14C]-metformin
T1 construct: expressed in transfected cells; host or cells: MDCK-II
T1 sequence (Q96FL8 1-570): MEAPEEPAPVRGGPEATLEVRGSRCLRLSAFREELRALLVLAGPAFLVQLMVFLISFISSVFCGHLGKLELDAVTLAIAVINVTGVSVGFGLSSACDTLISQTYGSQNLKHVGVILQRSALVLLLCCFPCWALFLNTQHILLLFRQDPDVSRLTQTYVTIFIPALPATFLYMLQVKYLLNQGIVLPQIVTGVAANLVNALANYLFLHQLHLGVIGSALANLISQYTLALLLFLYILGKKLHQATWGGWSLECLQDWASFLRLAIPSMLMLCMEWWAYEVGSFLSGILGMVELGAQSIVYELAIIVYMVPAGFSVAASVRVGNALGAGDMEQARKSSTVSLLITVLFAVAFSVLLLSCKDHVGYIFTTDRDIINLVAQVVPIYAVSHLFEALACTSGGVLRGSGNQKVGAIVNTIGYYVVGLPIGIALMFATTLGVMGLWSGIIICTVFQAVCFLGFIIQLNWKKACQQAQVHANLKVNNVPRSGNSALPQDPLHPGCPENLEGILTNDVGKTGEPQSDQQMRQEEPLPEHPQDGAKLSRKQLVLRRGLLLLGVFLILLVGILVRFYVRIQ
Description: (§1) Compound 1 was studied in the concentration range of 0.1-100 μM for its potency against transport mediated by various transporter proteins. [table]

[1] = biological target: T2, human transporter MATE2-K (Homo sapiens, UniProt Q86VL8); experiment: In vitro ion transport assay 1, MATE2-K; type: cell-based; settings: probe substrate 10 μM [14C]-metformin
T2 construct: expressed in transfected cells; host or cells: MDCK-II
T2 sequence (Q86VL8 1-566 isoform Q86VL8-3): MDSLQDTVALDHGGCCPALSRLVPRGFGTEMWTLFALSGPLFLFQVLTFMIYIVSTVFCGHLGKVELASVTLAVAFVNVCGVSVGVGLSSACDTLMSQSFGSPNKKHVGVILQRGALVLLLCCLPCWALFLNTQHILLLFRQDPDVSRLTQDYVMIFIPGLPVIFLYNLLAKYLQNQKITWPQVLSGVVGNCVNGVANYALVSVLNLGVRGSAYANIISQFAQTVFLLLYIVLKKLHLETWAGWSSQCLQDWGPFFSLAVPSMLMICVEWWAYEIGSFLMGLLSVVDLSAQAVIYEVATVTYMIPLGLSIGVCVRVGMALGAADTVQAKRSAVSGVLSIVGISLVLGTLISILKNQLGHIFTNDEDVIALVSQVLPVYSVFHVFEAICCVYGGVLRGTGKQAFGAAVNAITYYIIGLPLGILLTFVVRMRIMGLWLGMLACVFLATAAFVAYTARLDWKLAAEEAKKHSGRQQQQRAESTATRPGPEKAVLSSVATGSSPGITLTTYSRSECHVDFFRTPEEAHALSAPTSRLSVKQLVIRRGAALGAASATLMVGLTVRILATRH
Description: as §1

OAT3 = biological target: T3, OAT3 (Homo sapiens, UniProt Q8TCC7); experiment: Further OAT3 uptake inhibition assay (Table 2); type: cell-based; settings: human, MDCK-II cells expressing human OAT3, probe 10 μM PAH (p-aminohippurate); compound 1 μM; PAH 10 μM; mean and SD of triplicate
T3 construct: expressed in transfected cells; host or cells: MDCK-II
T3 sequence (Q8TCC7 1-542): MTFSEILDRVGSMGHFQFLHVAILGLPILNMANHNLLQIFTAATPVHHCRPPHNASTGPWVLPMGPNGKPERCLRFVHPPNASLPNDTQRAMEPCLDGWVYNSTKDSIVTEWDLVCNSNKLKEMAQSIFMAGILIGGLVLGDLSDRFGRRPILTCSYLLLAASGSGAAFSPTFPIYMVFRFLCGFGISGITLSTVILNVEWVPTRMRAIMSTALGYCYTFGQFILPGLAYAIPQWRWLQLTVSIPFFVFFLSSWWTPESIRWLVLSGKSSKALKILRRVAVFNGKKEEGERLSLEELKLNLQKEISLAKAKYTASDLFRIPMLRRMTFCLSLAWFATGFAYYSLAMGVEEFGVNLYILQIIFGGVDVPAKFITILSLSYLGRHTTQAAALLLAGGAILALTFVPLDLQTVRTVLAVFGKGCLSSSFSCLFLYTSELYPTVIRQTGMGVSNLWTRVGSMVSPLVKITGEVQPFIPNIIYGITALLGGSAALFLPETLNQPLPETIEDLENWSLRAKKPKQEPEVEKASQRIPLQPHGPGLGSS
Description: (§2) In a further assay, the effects of several other compounds (including compounds 2, 3, and 4) were assessed against OAT3. The assay was carried out using a similar procedure as described above, using para-aminohippurate (PAH) and estrone-3-sulfate (E3S) as the substrates for measuring OAT3-mediated transport. […] MDCK-II cells were grown in 96-well cell culture plates, and the cell plates are maintained at 37° C. in 5% CO2 atmosphere prior to initiation of the transport experiment. MDCK-II cells were maintained in DMEM with low glucose and 10% FBS. Cells passages up to 40 are seeded at 60K±10K cells/well on 96-well, transwell membrane plates approximately 24 hours before transfection. Transport assays were carried out approximately 48 hours after transfection. Radio-labeled para-aminohippurate ([3H]-PAH) and estrone-3-sulfate (E3S) were used as substrates for measuring OAT3-mediated transport, where the transport of the substrate was determined by radiometric detection. Probenecid was used as a reference inhibitor. Transport study samples were run in triplicate.
(§3) For uptake assays, the net transporter-mediated uptake rate (V) of the substrate by each SLC transporter was calculated as follows:
(§4) Transporter-mediated uptake rate(pmol/min/cm^2)=((Cellular accumulation in cells expressing the transporter)−(Mean cellular accumulation in control cells))/Incubation time.
(§5) Percent inhibition was calculated by dividing the transporter-mediated uptake rate in presence of the test article or the reference inhibitor by the transporter-mediated uptake rate in presence of vehicle control:
(§6) Percent inhibition=100−(100×(transporter-mediated uptake rate)with inhibitor/(transporter-mediated uptake rate)vehicle control)
(§7) For uptake assays, statistical analyses using an unpaired t test was performed between transporter-mediated uptake rate or ATP-dependent transport rate of probe substrate with vehicle control and the inhibitor. A p value of <0.05 was considered statistically significant.
(§8) Table 2 summarizes the inhibitory activity of these compounds against OAT3 in the uptake of probe substrate PAH (p-aminohippurate) or E3S (estrone-3-sulfate). The percent inhibition values were determined by testing compounds at a single concentration of 1 μM with a PAH concentration of 10 μM. Data represent the mean and standard deviation of triplicate samples. The IC50 values were calculated by means of a concentration response curve with a compound concentration range of 0.03-10 μM and a probe substrate concentration of 10 μM PAH or 0.1 μM E3S. The percent inhibition at the various concentrations was run in triplicate and the IC50 value was determined by non-linear regression using GraphPad Prism.

human transporter OAT3 = biological target: T4, human transporter OAT3 (Homo sapiens, UniProt Q8TCC7); experiment: Further OAT3 uptake inhibition assay (Table 2); type: cell-based; settings: compound 0.03-10 μM
T4 construct: expressed in transfected cells; host or cells: MDCK-II
T4 sequence (Q8TCC7 1-542): T3 sequence (Q8TCC7 1-542)
Description: as §2, §3, §4, §5, §6, §7, §8

[2] = tested on: dopaminergic (DAT) transporter; experiment: DAT immunolabeling in striatum, L61 ASYN transgenic mice; type: in vivo; settings: 3 months
Description: The harvested brain tissues were drop fixed using 4% PFA and sectioned on a vibratome, and representative sections corresponding to the striatum and cerebellum were assessed for DAT with IHC staining.
Immunolabeling studies of DAT were conducted using a monoclonal antibody (1:500; MAB369; Millipore, Temecula, Calif.) and a biotinylated secondary antibody (1:100; BA4000, Vector Labs) and analysis was performed on blindcoded sections from Line 61 transgenic and non-transgenic mice. Slides were digitized using a high resolution automated Nanozoomer slide scanner (Hamamatsu Corp.). Digitized images were analyzed using Halo (Indica Labs) image analysis software package by placing an ROI frame within the dorsal striatum and another within a separate reference brain region (for normalization of DAT signal). A thresholding algorithm was defined and then applied equally to all images to determine the average optical density of DAT immunolabeling across each ROI The results of the analysis were then exported for graphing and statistical analysis and the striatal DAT:cortical (reference region) DAT optical densities ratio was calculated for each subject.
Quantification of DAT density was carried out by calculating the immunofluorescence in striatal sections against that in cerebellum sections to derive a striatal-to-reference ratio.

With O=S(=O)(c1ccc(-n2cn[nH]c2=S)cc1)c1ccc(Cl)c(C(F)(F)F)c1 [Compound 1, 4-(4-((4-chloro-3-(trifluoromethyl)phenyl)sulfonyl)phenyl)-2,4-dihydro-3H-1,2,4-triazole-3-thione] the IC50 (human transporter MATE1) was 30.3 µM, the IC50 [1] was 75.8 µM and the inhibition at 1 μM (OAT3) was 80.3%. The IC50 (human transporter OAT3; 0.1 μM E3S, read-out: OAT3 inhibition substrate = E3S (IC50)) was 0.891 µM, the IC50 (human transporter OAT3; 10 μM PAH, read-out: OAT3 inhibition substrate = PAH (IC50)) was 0.252 µM and the “striatal levels of DAT, staining intensity in representative images vs vehicle-treated L61 mice” value ([2]; 5 mg/kg or 10 mg/kg daily) was “restoring striatal levels of DAT”. The “DAT striatal-to-reference ratio, quantification (FIG. 24)” value ([2]; 10 mg/kg daily) was “reduces the GFAP levels in a statistically significant manner”.
